# Like-named read-outs stand apart in the source and are kept apart here.
# Target: T1, human GR (Homo sapiens, UniProt P04150)
# T1 sequence (P04150 1-777): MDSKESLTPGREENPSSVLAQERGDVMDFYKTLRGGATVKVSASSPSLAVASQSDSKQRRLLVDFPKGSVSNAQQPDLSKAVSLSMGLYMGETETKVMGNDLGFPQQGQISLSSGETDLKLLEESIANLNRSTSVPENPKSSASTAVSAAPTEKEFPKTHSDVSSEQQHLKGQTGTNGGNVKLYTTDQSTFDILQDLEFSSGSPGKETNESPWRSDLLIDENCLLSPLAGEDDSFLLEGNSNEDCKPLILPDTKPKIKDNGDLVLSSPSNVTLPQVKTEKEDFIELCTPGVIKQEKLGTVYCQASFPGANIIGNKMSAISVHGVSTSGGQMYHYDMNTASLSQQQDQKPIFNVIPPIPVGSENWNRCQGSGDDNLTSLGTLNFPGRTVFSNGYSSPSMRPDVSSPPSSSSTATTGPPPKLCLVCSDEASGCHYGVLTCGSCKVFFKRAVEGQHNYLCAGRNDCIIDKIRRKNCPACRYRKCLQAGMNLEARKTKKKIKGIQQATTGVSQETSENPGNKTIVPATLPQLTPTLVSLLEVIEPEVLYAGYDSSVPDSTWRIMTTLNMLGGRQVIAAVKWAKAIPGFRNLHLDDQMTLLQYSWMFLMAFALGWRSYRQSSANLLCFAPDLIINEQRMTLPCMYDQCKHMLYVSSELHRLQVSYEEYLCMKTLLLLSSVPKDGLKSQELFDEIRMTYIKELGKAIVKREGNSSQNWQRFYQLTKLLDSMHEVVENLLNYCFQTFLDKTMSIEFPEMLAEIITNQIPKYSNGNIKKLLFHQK
# Assay: Transrepression Assay (GITAR), TNFα-β-lactamase reporter in U937 cells
# Type: cell-based
# Parameters: U937 cells contain an endogenous glucocorticoid receptor (GR); endogenous in cells; host or cells: U937 cells stably transfected with the TNF-alpha promoter/beta-lactamase reporter
# Details: for GITAR > GRAMM % SEP: GITAR Emax minus GRAMMER Emax; for EC50: inflection point, read-out: Transrepression U937 Cells GITAR IP
# How it was run: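 U937 cells with endogenous GR, stably carrying TNFα promoter–β-lactamase, preincubated with compound 30–45 min at 37° C, then stimulated with PMA 5 ng/ml and LPS 100 ng/ml (final) ~18 hr. Read-out via CCF2-AM loading; repression by 100 nM dexamethasone set as 100%.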
# [1] = U-937, U937 cells, maximum activity, read-out: Transrepression U937 Cells GITAR Emax
# [2] = U-937, activity repressed by 100 nM dexamethasone alone set as 100%, read-out: maximal activity in the transrepression (GITAR) assay
SMILES,GITAR > GRAMM % SEP [%],EC50 (U937 cells) [nM],Emax [1] [%],Emax [2] [%],"Transrepression U937 Cells GITAR Emax (U937 cells, maximum activity) [%]"
"C[C@]12Cc3cnn(-c4ccc(F)cc4)c3C=C1CC[C@@H]2CN(CCc1ccccn1)S(=O)(=O)Cc1cccnc1 [Example 1, N-{[(4αR,5S)-1-(4-Fluorophenyl)-4α-methyl-1,4,4α,5,6,7-hexahydrocyclopenta[f]indazol-5-yl]methyl}-1-pyridin-3-yl-N-(2-pyridin-2-ylethyl)methanesulfonamide]",41.9,407,–,–,73.5
"Cc1ccc(S(=O)(=O)N(CCO)C[C@H]2CCC3=Cc4c(cnn4-c4ccc(F)cc4)C[C@@]32C)s1 [Example 64, N-{[(4αR,5S)-1-(4-fluorophenyl)-4α-methyl-1,4,4α,5,6,7-hexahydrocyclopenta[f]indazol-5-yl]methyl}-N-(2-hydroxyethyl)-5-methylthiophene-2-sulfonamide]",21.1,731,29,> 5,–
"Cn1cc(S(=O)(=O)N(CCO)C[C@H]2CCC3=Cc4c(cnn4-c4ccc(F)cc4)C[C@@]32C)c(C(F)(F)F)n1 [Example 65, N-{[(4αR,5S)-1-(4-fluorophenyl)-4α-methyl-1,4,4α,5,6,7-hexahydrocyclopenta[f]indazol-5-yl]methyl}-N-(2-hydroxyethyl)-1-methyl-3-(trifluoromethyl)-1H-pyrazole-4-sulfonamide]",41.3,894,61,> 5,–
"Cc1cc(S(=O)(=O)N(CCO)C[C@H]2CCC3=Cc4c(cnn4-c4ccc(F)cc4)C[C@@]32C)c(C)o1 [Example 66, N-{[(4αR,5S)-1-(4-fluorophenyl)-4α-methyl-1,4,4α,5,6,7-hexahydrocyclopenta[f]indazol-5-yl]methyl}-N-(2-hydroxyethyl)-2,5-dimethylfuran-3-sulfonamide]",19.2,929,24.5,> 5,–

# More lines, in order of falling EC50 (U937 cells), values ahead:
GITAR > GRAMM % SEP [%],EC50 (U937 cells) [nM],Emax [1] [%],Emax [2] [%],SMILES,"Transrepression U937 Cells GITAR Emax (U937 cells, maximum activity) [%]"
–,407,65.1,> 5,"C=CCN(C[C@H]1CCC2=Cc3c(cnn3-c3ccc(F)cc3)C[C@@]21C)S(=O)(=O)c1ccccc1F [Example 3, N-allyl-2-fluoro-N-{[(4αR,5S)-1-(4-fluorophenyl)-4α-methyl-1,4,4α,5,6,7-hexahydrocyclopenta[f]indazol-5-yl]methyl}benzenesulfonamide]",–
9.9,404,12,> 5,"C[C@]12Cc3cnn(-c4ccc(F)cc4)c3C=C1CC[C@@H]2CN(CCO)S(=O)(=O)Cc1cccc(C(F)(F)F)c1 [Example 63, N-{[(4αR,5S)-1-(4-fluorophenyl)-4α-methyl-1,4,4α,5,6,7-hexahydrocyclopenta[f]indazol-5-yl]methyl}-N-(2-hydroxyethyl)-1-[3-(trifluoromethyl)phenyl]methanesulfonamide]",–
–,260,73.3,> 5,"C[C@]12Cc3cnn(-c4ccc(F)cc4)c3C=C1CC[C@@H]2CN(CC1CC1)S(=O)(=O)c1ccccc1F [Example 2, N-(cyclopropylmethyl)-2-fluoro-N-{[(4αR,5S)-1-(4-fluorophenyl)-4α-methyl-1,4,4α,5,6,7-hexahydrocyclopenta[f]indazol-5-yl]methyl}benzenesulfonamide]",–
36.2,256,53.1,> 5,"C[C@]12Cc3cnn(-c4ccc(F)cc4)c3C=C1CC[C@@H]2CN(CC1CC1)S(=O)(=O)c1ccccc1C(F)(F)F [Example 4, N-(cyclopropylmethyl)-N-{[(4αR,5S)-1-(4-fluorophenyl)-4α-methyl-1,4,4α,5,6,7-hexahydrocyclopenta[f]indazol-5-yl]methyl}-2-(trifluoromethyl)benzenesulfonamide]",–
